Data as given in article doi:10.1101/2021.06.18.448987v1 (biorxiv, 2021).
Like-named read-outs stand apart in the source and are kept apart here. Blank lines part the entries; values can stand above or below the molecule they belong to.

Tests used:
AnaGlgC [1] = biological target: T1, AnaGlgC (Nostoc sp. PCC 7120 = FACHB-418, UniProt P30521); assay: Malachite Green Pi release with inorganic pyrophosphatase, ADP-Glc synthesis; format: biochemical
T1 sequence (P30521 1-429): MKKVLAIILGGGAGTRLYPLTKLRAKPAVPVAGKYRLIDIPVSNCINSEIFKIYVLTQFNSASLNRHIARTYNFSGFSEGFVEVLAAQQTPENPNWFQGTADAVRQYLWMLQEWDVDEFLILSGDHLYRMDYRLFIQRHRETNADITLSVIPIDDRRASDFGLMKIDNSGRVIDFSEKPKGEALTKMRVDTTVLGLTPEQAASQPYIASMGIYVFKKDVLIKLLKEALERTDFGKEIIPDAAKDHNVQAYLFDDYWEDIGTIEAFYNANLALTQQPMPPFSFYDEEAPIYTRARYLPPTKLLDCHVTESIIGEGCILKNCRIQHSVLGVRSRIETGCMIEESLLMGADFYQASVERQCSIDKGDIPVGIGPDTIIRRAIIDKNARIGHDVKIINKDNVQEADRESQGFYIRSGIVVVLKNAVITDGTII

AnaGlgC [2] = biological target: T1, AnaGlgC; assay: biochemical
inMelGlgC [3] = assay: activity assay, ADP-Glc synthesis; format: biochemical, Candidatus Melainabacteria bacterium MEL.A1; details: read-out: I0.5; inhibitor; 10 mM MgCl2; MOPS pH 8.0; 37 °C
flMelGlgC [4] = assay: activity assay, ADP-Glc synthesis; format: biochemical, Candidatus Melainabacteria bacterium GWF2_37_15; details: read-out: I0.5; inhibitor; 10 mM MgCl2; MOPS pH 8.0; 37 °C
flMelGlgC [5] = details: read-out: S0.5, no effector, 10 mM MgCl2, MOPS pH 8.0, 37 °C
inMelGlgC [6] = details: read-out: S0.5, no effector, 10 mM MgCl2, MOPS pH 8.0, 37 °C
flMelGlgC [7] = assay: Malachite Green Pi release with inorganic pyrophosphatase, ADP-Glc synthesis; format: biochemical, Candidatus Melainabacteria bacterium GWF2_37_15; details: read-out: A0.5; allosteric activator; 10 mM MgCl2; MOPS pH 8.0; 37 °C
inMelGlgC [8] = assay: as above; format: biochemical, Candidatus Melainabacteria bacterium MEL.A1; details: read-out: A0.5; allosteric activator; 10 mM MgCl2; MOPS pH 8.0; 37 °C
AnaGlgC [9] = biological target: T1, AnaGlgC; assay: coupled spectrophotometric assay; format: biochemical
purified protein [10] = substrate: O=P(O)(O)O[C@H]1O[C@H](CO)[C@@H](O)[C@H](O)[C@H]1O; assay: purified protein; details: no effector, saturating ATP, 10 mM MgCl2, MOPS pH 8.0, 37 °C
purified protein [11] = substrate: Nc1ncnc2c1ncn2[C@@H]1O[C@H](COP(=O)(O)OP(=O)(O)OP(=O)(O)O)[C@@H](O)[C@H]1O; assay: purified protein; details: no effector, saturating Glc-1P, 10 mM MgCl2, MOPS pH 8.0, 37 °C
[12] = read-out: A0.5, allosteric activator, 10 mM MgCl2, MOPS pH 8.0, 37 °C

EC50 (AnaGlgC [1]): 200 µM | EC50 (AnaGlgC [2]): 190 ± 90 µM
Molecule: O=C(O)[C@H](O)COP(=O)(O)O [3-PGA]

IC50 (inMelGlgC [3]): 2300 ± 900 µM | IC50 (flMelGlgC [4]): 1440 ± 80 µM
Molecule: Nc1ncnc2c1ncn2[C@@H]1O[C@H](COP(=O)(O)OP(=O)(O)O)[C@@H](O)[C@H]1O [ADP]

Molecule: Nc1ncnc2c1ncn2[C@@H]1O[C@H](COP(=O)(O)OP(=O)(O)OP(=O)(O)O)[C@@H](O)[C@H]1O [ATP]
Km (flMelGlgC [5]; saturating Glc-1P): 340 ± 50 µM | Km (inMelGlgC [6]; saturating Glc-1P): 250 ± 10 µM

EC50 (flMelGlgC [7]): 1700 ± 100 µM | EC50 (AnaGlgC [1]; [12]): 900 ± 100 µM | EC50 (inMelGlgC [8]): 440 ± 50 µM
Molecule: O=P(O)(O)OC[C@H]1OC(O)(CO)[C@@H](O)[C@@H]1O (stereo partly shown) [Fru-6P]

Km (flMelGlgC [5]; saturating ATP): 2100 ± 200 µM | Km (inMelGlgC [6]; saturating ATP): 320 ± 30 µM
Molecule: O=P(O)(O)O[C@H]1O[C@H](CO)[C@@H](O)[C@H](O)[C@H]1O [Glc-1P]

EC50 (flMelGlgC [7]): ~300 µM | EC50 (AnaGlgC [1]; [12]): 1450 ± 160 µM | EC50 (inMelGlgC [8]): ~300 µM
Molecule: O=P(O)(O)OC[C@H]1OC(O)[C@H](O)[C@@H](O)[C@@H]1O (stereo partly shown) [Glc-6P]

EC50 (flMelGlgC [7]): 450 ± 40 µM | EC50 (inMelGlgC [8]): 520 ± 20 µM
Molecule: O=P(O)(O)OC[C@H]1OC(O)[C@@H](O)[C@@H](O)[C@@H]1O (stereo partly shown) [Man-6P]

IC50 (AnaGlgC [9]): 90 µM
Molecule: O=P(O)(O)O [Pi]

B1: AnaGlgC (Nostoc sp. PCC 7120 = FACHB-418) (protein)
chain: MKKVLAIILGGGAGTRLYPLTKLRAKPAVPVAGKYRLIDIPVSNCINSEIFKIYVLTQFNSASLNRHIARTYNFSGFSEGFVEVLAAQQTPENPNWFQGTADAVRQYLWMLQEWDVDEFLILSGDHLYRMDYRLFIQRHRETNADITLSVIPIDDRRASDFGLMKIDNSGRVIDFSEKPKGEALTKMRVDTTVLGLTPEQAASQPYIASMGIYVFKKDVLIKLLKEALERTDFGKEIIPDAAKDHNVQAYLFDDYWEDIGTIEAFYNANLALTQQPMPPFSFYDEEAPIYTRARYLPPTKLLDCHVTESIIGEGCILKNCRIQHSVLGVRSRIETGCMIEESLLMGADFYQASVERQCSIDKGDIPVGIGPDTIIRRAIIDKNARIGHDVKIINKDNVQEADRESQGFYIRSGIVVVLKNAVITDGTII
K0.5 (purified protein [10]): 0.08 ± 0.02 mM | K0.5 (purified protein [11]): 0.40 ± 0.04 mM
